Measurements from ChEMBL document CHEMBL1124693, “Synthesis of the novel pi-(benzyloxymethyl)-protected histidine analogue of statine. Inhibition of penicillopepsin by pepstatin-derived peptides containing different statine side-chain derivatives” (J Med Chem, 1989).

How the values were obtained:
[1] = system: Penicillopepsin (Penicillium janthinellum); assay: Inhibitory activity against pencillopepsin
[2] = system: Penicillopepsin (Penicillium janthinellum); assay: Slow binding kinetics after pre-incubation of enzyme and inhibitor for 10 min before substrate addition;+ indicates weak inhibition of penicillopepsin.

Structure (SMILES)	Ki [1] [nM]	Slow binding [2]
COC(=O)C[C@H](O)[C@H](Cc1c[nH]cn1)NC(=O)[C@@H](NC(=O)[C@@H](NC(=O)CC(C)C)C(C)C)C(C)C	4.5	weak inhibition of porcine pepsin
CCOC(=O)C[C@H](O)[C@H](Cc1ccccc1)NC(=O)[C@@H](NC(=O)[C@@H](NC(=O)CC(C)C)C(C)C)C(C)C	15	
CCOC(=O)C[C@H](O)[C@H](CCCN)NC(=O)[C@@H](NC(=O)[C@@H](NC(=O)CC(C)C)C(C)C)C(C)C	1.1	
CCOC(=O)C[C@H](O)[C@H](CC(C)C)NC(=O)[C@H](NC(=O)[C@@H](NC(=O)CC(C)C)C(C)C)C(C)C	> 18000	
CCOC(=O)C[C@H](O)[C@H](CC(C)C)NC(=O)[C@@H](NC(=O)[C@@H](NC(=O)CC(C)C)C(C)C)C(C)C	72	
